Measured values published in patent US11345701B1, “KRAS mutant protein inhibitors” (Jacobio Pharmaceuticals Co., Ltd., priority 2021, dated 2022).

molecular target: HIS-KRAS(G12C) (Homo sapiens (Human), UniProt P01116, G12C); assay: SOS1 catalyzed nucleotide exchange assay (TR-FRET); assay type: biochemical; conditions: GDP-loaded HIS-KRAS(G12C), 1 hour pre-incubation, TR-FRET
Protocol: TR-FRET signals were then read on Tecan Spark multimode microplate reader. […] TR-FRET ratios for each individual wells were calculated by equation: TR-FRET ratio=(Signal F515/Signal F486)*10000. Then the data were analyzed using a 4-parameter logistic model to calculate IC50 values.

Sequence of HIS-KRAS(G12C) (P01116 other isoform, or with tags, fused parts or gaps G12C): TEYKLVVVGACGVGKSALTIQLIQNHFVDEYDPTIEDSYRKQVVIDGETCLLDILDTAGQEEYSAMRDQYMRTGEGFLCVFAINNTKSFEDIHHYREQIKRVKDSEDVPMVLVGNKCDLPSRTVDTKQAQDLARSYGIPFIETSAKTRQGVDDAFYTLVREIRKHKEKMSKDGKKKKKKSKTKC

SMILES	IC50
C=CC(=O)N1[C@H](C)CN(c2nc(=O)n(-c3c(C)ccnc3C(C)C)c3nc(-c4c(F)c(F)c(F)c(N)c4Cl)c(F)cc23)C[C@@H]1C [Compound 7, 4-((3S,5R)-4-acryloyl-3,5-dimethylpiperazin-1-yl)-7-(3-amino-2-chloro-4,5,6-trifluorophenyl)-6-fluoro-1-(2-isopropyl-4-methylpyridin-3-yl)pyrido[2,3-d]pyrimidin-2(1H)-one]	17.5 nM
C=CC(=O)N1[C@H](C)CN(c2nc(=O)n(-c3c(C)ccnc3C(C)C)c3nc(-c4c(F)c(F)c(F)c(N)c4Cl)c(F)cc23)C[C@@H]1C (single isomer, unassigned) [Compound 7-2]	307 nM
C=CC(=O)N1CCN(c2nc(=O)n(-c3c(C)ccnc3C(C)C)c3nc(-c4c(N)c(F)c(F)c(F)c4F)c(F)cc23)CC1 (single isomer, unassigned) [Compound 3-2, 4-(4-acryloylpiperazin-1-yl)-7-(2-amino-3,4,5,6-tetrafluorophenyl)-6-fluoro-1-(2-isopropyl-4-methylpyridin-3-yl)pyrido[2,3-d]pyrimidin-2(1H)-one]	234 nM
C=CC(=O)N1CCN(c2nc(=O)n(-c3c(C)ccnc3C(C)C)c3nc(-c4c(N)c(F)c(F)c(F)c4F)c(F)cc23)C[C@H]1C [Compound 4, 4-((R)-4-acryloyl-3-methylpiperazin-1-yl)-7-(2-amino-3,4,5,6-tetrafluorophenyl)-6-fluoro-1-(2-isopropyl-4-methylpyridin-3-yl)pyrido[2,3-d]pyrimidin-2(1H)-one]	10.3 nM
C=CC(=O)N1CCN(c2nc(=O)n(-c3c(C)ccnc3C(C)C)c3nc(-c4c(F)c(F)c(F)c(N)c4Cl)c(F)cc23)[C@@H](C)C1 (single isomer, unassigned) [Compound 1-2]	121 nM
C=CC(=O)N1CCN(c2nc(=O)n(-c3c(C)ccnc3C(C)C)c3nc(-c4c(N)c(F)c(F)c(F)c4F)c(F)cc23)C[C@H]1C (single isomer, unassigned) [Compound 4-2]	278 nM
C=CC(=O)N1CCN(c2nc(=O)n(-c3c(C)ccnc3C(C)C)c3nc(-c4c(F)c(F)c(F)c(N)c4Cl)c(F)cc23)C[C@H]1C [Compound 6, 4-((R)-4-acryloyl-3-methylpiperazin-1-yl)-7-(3-amino-2-chloro-4,5,6-trifluorophenyl)-6-fluoro-1-(2-isopropyl-4-methylpyridin-3-yl)pyrido[2,3-d]pyrimidin-2(1H)-one]	40.1 nM
C=CC(=O)N1CCN(c2nc(=O)n(-c3c(C)ccnc3C(C)C)c3nc(-c4c(N)c(F)c(F)c(F)c4F)c(F)cc23)CC1 [Compound 3, 4-(4-acryloylpiperazin-1-yl)-7-(2-amino-3,4,5,6-tetrafluorophenyl)-6-fluoro-1-(2-isopropyl-4-methylpyridin-3-yl)pyrido[2,3-d]pyrimidin-2(1H)-one]	5.51 nM
